Results published in US20140303092A1 (CHIMERIX, INC., priority 2011, published 2014).
Values joined by “and” are separate entries in the source; they are usually repeats but may differ in a detail not shown here. Identical values can stand only once.

Tested on: CMV
Assay: Study HDP-CDV-201: prevention or control of CMV infection in R+ HSCT recipients (efficacy)
Format: in vivo, human (adult allogeneic HSCT recipients)
Procedure: The clinical study of the current invention (HDP-CDV-201) was a 9-11 week randomized, placebo-controlled, double-blind, dose-escalation study (40 mg weekly [QW], 100 mg QW, 200 mg QW, 200 mg twice-weekly [BIW], and 100 mg BIW) of HDP-CDV for the prevention of CMV infection post-HCT. Treatment was initiated at the time of engraftment and continued until Week 13 post-HCT. HDP-CDV, at various doses, was active and well tolerated in the prevention CMV infection or disease.
Clinical Studies of HDP-CDV were performed and described in detail in the following Examples. For example, HDP-CDV-201 is a placebo-controlled, dose-escalating trial in HSCT CMV (R+) recipients, evaluating the ability of HDP-CDV to prevent or control CMV infection was carried out. Five cohorts were established in which participants or subjects received either placebo or the HDP-CDV orally, in doses ranging from 40 mg weekly (QW) to 200 mg twice weekly (BIW). Subjects who were post-HSCT were enrolled at the time of engraftment and randomized to HDP-CDV or placebo (3 to 1 ratio) and received blinded therapy until approximately 100 day post-transplantation. HDP-CDV doses were 40 mg QW, 100 mg QW, 200 mg QW, 200 mg BIW and 100 mg BIW. Escalation to the next dose was decided by the data monitoring committee after review of the safety data from the previous Cohort. Subjects who developed CMV disease or CMV infection requiring pre-emptive therapy with local standard of care were discontinued from blinded therapy and followed for 4 weeks. Subjects who completed treatment with blinded therapy were followed for 8 weeks post-therapy.
The primary endpoint was defined as the incidence of CMV disease at any time during treatment or CMV DNAemia≧200 copies/mL at the end of treatment. All subjects who received at least one dose of drug/placebo and had at least one efficacy evaluation post baseline were included in the primary analysis, regardless of their CMV DNAemia status (negative or positive) at baseline (mITT population). Results for the pooled HDP-CDV Cohorts and for each Cohort separately were analyzed versus that for pooled placebo.
The primary efficacy measure for this study was treatment failure, defined as the occurrence of CMV infection, defined as CMV DNAemia>200 copies/mL at the End of Treatment or diagnosis of CMV disease at any time during the treatment period. For the analysis, the following definitions apply:
For subjects who completed the treatment phase of the study, the End of Treatment was defined as the latest assessment from date of the last dose of study drug and up to 7 days for QW dosing, or the date of the last dose of study drug and up to 4 days for BIW dosing. For subjects who discontinued during the treatment phase of the study, the End of Treatment was defined as the date of the last dose of study drug.
The time to event was defined as the period between FDD and date of first occurrence of the event of interest (inclusive). The events included onset of CMV DNAemia, onset of CMV disease, and discontinuation because of excluded anti-CMV medications. Time to event/onset was derived as (the event/onset date—FDD)+1.
As detailed in the Statistical Analysis Plan, a modified CMV stratum was defined prior to conducting the statistical analysis based upon polymerase chain reaction (PCR) results from the central laboratory. If any positive CMV DNA value in plasma was collected before the first dose of study drug (including Screening, Pre-dose, (combined Screening/Pre-dose), CMV for stratification, and FDD), then the subject was placed into the modified CMV positive (≧100 copies/mL) stratum, otherwise the subject was in the modified CMV negative stratum. […]

[1] = 200 mg QW, modified CMV negative stratum
[2] = 200 mg QW, whole study period, CMV DNA negative at baseline
[3] = All HDP-CDV, CMV modified strata: negative
[4] = All HDP-CDV, CMV modified strata: positive

CCCCCCCCCCCCCCCCOCCCOP(=O)(O)COC(CO)Cn1ccc(N)nc1=O (stereo not drawn) [HDP-CDV]
Subjects Receiving Antiviral Therapy and/or had CMV disease (200 mg QW, mITT): 7 (17.9%) subjects (%)
Subjects without a CMV event (200 mg QW, mITT): 32 (82.1%) subjects (%)
Time to Antiviral Therapy, Median (200 mg QW, mITT): 40.0 days
Rate of CMV Disease or End of Treatment CMV Infection (≧200 copies/ml) (200 mg QW, mITT, missing=infection): 31% and 30.8%
Rate of CMV DNAemia ≧1000 copies/mL during the treatment period (200 mg QW, mITT, post hoc): 18% and 17.9%
Time to Antiviral Therapy, Mean (200 mg QW, mITT, censored values not included): 38.1 days
% CMV Event Rate: Incidence of CMV DNAemia >100 copies/mL During Treatment (Fisher analysis, ref 14.3.3.2.1) [1]: 7 (24.1%) subjects (%)
% CMV Event Rate: Incidence of CMV DNAemia ≧1,000 copies/mL at any time during treatment [1]: 2 (6.9%) subjects (%)
Combined CMV event rate (CMV disease, viremia requiring treatment, viremia ≧1000 copies/mL) [1]: 13.8%
Subjects Who Had CMV-related Event (CMV disease, CMV DNAemia ≧1,000 c/mL or initiation of anti-CMV treatment) [1]: 4 (13.8%) subjects (%)
Subjects without a CMV-related event [1]: 25 (86.2%) subjects (%)
Developed CMV DNAemia (≧100 copies/mL) during the treatment period (200 mg QW, plasma CMV DNA negative at baseline, mITT): 7 (23.3%) N(%)
Time to CMV DNAemia (≧100 copies/mL), Median (200 mg QW, treatment period, CMV DNA negative at baseline): 15.0 days
Time to CMV DNAemia (≧100 copies/mL), Mean (200 mg QW, treatment period, CMV DNA negative at baseline, censored values not included): 22.6 days
Number of Subjects who had CMV DNAemia (≧100 copies/mL) by the end of study [2]: 11
Time to CMV DNAemia (≧100 copies/mL), Mean [2]: 36.3 days
Time to CMV DNAemia (≧100 copies/mL), Median [2]: 36.0 days
subjects with emergence of viremia between end of treatment and end of treatment-free follow-up (8 weeks follow-up): less than 10%
% CMV Event Rate, primary: CMV DNAemia >200 copies/mL at end of treatment OR CMV disease during treatment (All HDP-CDV (N = 133), CMV modified strata: negative): 21 (15.8%) subjects (%)
% CMV Event Rate, primary: CMV DNAemia >200 copies/mL at end of treatment OR CMV disease during treatment (All HDP-CDV (N = 162), aGVHD strata: negative): 41 (25.3%) subjects (%)
% CMV Event Rate, primary: CMV DNAemia >200 copies/mL at end of treatment OR CMV disease during treatment (All HDP-CDV (N = 171), mITT): 43 (25.1%) subjects (%)
Difference (HDP-CDV minus placebo) in infection rate [3]: −14.0%
Difference (HDP-CDV minus placebo) in rate of CMV DNAemia ≧1,000 copies/ml [3]: −25.9%
Rate of CMV DNAemia ≧1,000 copies/ml during the treatment period [3]: 6.0%
Rate of CMV Disease or End of Treatment CMV Infection [3]: 15.8%
Difference (HDP-CDV minus placebo) in rate of CMV DNAemia ≧1,000 copies/mL [4]: −28.1%
Rate of CMV DNAemia ≧1,000 copies/mL during the treatment period [4]: 55.3%
Rate of CMV Disease or End of Treatment CMV Infection (All HDP-CDV, aGVHD randomization strata: negative): 25.3%
Difference (HDP-CDV minus placebo) in infection rate (All HDP-CDV, aGVHD strata: negative): −6.8%
Difference (HDP-CDV minus placebo) in rate of CMV DNAemia ≧1000 copies/mL (All HDP-CDV, mITT): −25.4%
Difference (HDP-CDV minus placebo) in rate of CMV disease or end of treatment CMV infection (All HDP-CDV, mITT): −12.1%
Rate of CMV DNAemia ≧1000 copies/mL during the treatment period (All HDP-CDV, mITT, post hoc): 17.0%
% CMV Event Rate: Incidence of CMV DNAemia ≧1,000 copies/mL at any time during treatment (All HDP-CDV, modified CMV negative stratum): 8 (6.0%) subjects (%)
CMV disease/infection rate (primary endpoint) (All cohorts combined, aGVHD positive strata (2 of 9)): 22.2%
CMV DNAemia rate over whole study period (Cohorts 100 mg QW, 200 mg QW and 100 mg BIW): ~35%
% CMV Event Rate, primary: CMV DNAemia >200 copies/mL at end of treatment OR CMV disease during treatment (Combined 100 mg QW, 200 mg BIW, 100 mg BIW (N = 86), CMV modified strata: negative): 8 (9.3%) subjects (%)
Rate of CMV DNAemia ≧1000 copies/mL during the treatment period (Exploratory analysis, cohorts that met endpoint (200 mg QW, 200 mg BIW, 100 mg BIW combined), mITT): 11% and 10.9%
Difference (HDP-CDV minus placebo) in rate of CMV DNAemia ≧1000 copies/mL (Exploratory analysis, cohorts that met endpoint, mITT): −23.2%
Incidence of composite endpoint (initiation of anti-CMV therapy or CMV disease or CMV DNAemia >1,000 copies/mL) (Higher doses (≧200 mg QW)): less than 15%
Incidence of CMV disease or initiation of anti-CMV preemptive therapy (Pooled HDP-CDV, mITT): 22% and 21.6%
overall rates of CMV DNAemia detectable at any time during treatment (across doses of 100 mg QW and higher): 17.4 to 23.8%
subjects who developed CMV disease (doses of 100 mg QW or higher (4/146)): 2.7%
subjects who developed CMV disease (doses of 200 mg per week or higher (1/119)): 0.8%
CMV disease/infection rate (primary endpoint) (doses ≧100 mg QW combined, aGVHD positive strata (1 out of 7)): 14.3%
failure rate, exploratory endpoint (pooled 100 mg QW, 200 mg BIW, 100 mg BIW, CMV negative stratum (8 of 86)): 9%
